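Test compounds were applied to cells in 96-well plates for 48 hours at 5 doses. GI50 marks 50% less growth. TGI denotes the concentration required for complete inhibition of growth.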
Tests used:
Assay in all cases: growth of human tumour cells (NCI), 48 h
IGROV1 ovarian = test system: IGROV1 ovarian
UO-31 renal = test system: UO-31 renal
COLO 205 colon = test system: COLO 205 colon
EKVX NSCLC = test system: EKVX NSCLC
OVCAR-8 ovarian = test system: OVCAR-8 ovarian
NCI-H460 lung = test system: NCI-H460 lung
MDA-MB-231 breast = test system: MDA-MB-231 breast
MOLT-4 leukemia = test system: MOLT-4 leukemia
BT-549 breast = test system: BT-549 breast
U251 CNS = test system: U251 CNS
SF-295 CNS = test system: SF-295 CNS
SNB-75 CNS = test system: SNB-75 CNS
TK-10 renal = test system: TK-10 renal
NCI-H23 lung = test system: NCI-H23 lung
PC-3 prostate = test system: PC-3 prostate
OVCAR-5 ovarian = test system: OVCAR-5 ovarian
HOP-92 NSCLC = test system: HOP-92 NSCLC
SK-MEL-5 melanoma = test system: SK-MEL-5 melanoma
SK-MEL-28 melanoma = test system: SK-MEL-28 melanoma
CAKI-1 renal = test system: CAKI-1 renal
HCT-116 colon = test system: HCT-116 colon
ACHN renal = test system: ACHN renal
SW-620 colon = test system: SW-620 colon
SK-OV-3 ovarian = test system: SK-OV-3 ovarian
MALME-3M melanoma = test system: MALME-3M melanoma
RXF 393 renal = test system: RXF 393 renal
SNB-19 CNS = test system: SNB-19 CNS
LOX IMVI melanoma = test system: LOX IMVI melanoma
UACC-62 melanoma = test system: UACC-62 melanoma
RPMI-8226 leukemia = test system: RPMI-8226 leukemia
SF-539 CNS = test system: SF-539 CNS
786-0 renal = test system: 786-0 renal
M14 melanoma = test system: M14 melanoma
A498 renal = test system: A498 renal
NCI-H522 lung = test system: NCI-H522 lung
K-562 leukemia = test system: K-562 leukemia
T-47D breast = test system: T-47D breast
SK-MEL-2 melanoma = test system: SK-MEL-2 melanoma
MDA-MB-468 breast = test system: MDA-MB-468 breast
HS 578T breast = test system: HS 578T breast
MDA-MB-435 = test system: MDA-MB-435
HOP-62 NSCLC = test system: HOP-62 NSCLC
SN12C renal = test system: SN12C renal
A549 NSCLC = test system: A549 NSCLC
UACC-257 melanoma = test system: UACC-257 melanoma
MCF7 breast = test system: MCF7 breast
HCC-2998 colon = test system: HCC-2998 colon
HL-60(TB) leukemia = test system: HL-60(TB) leukemia
HT29 colon = test system: HT29 colon
SF-268 CNS = test system: SF-268 CNS
HCT-15 colon = test system: HCT-15 colon
CCRF-CEM leukemia = test system: CCRF-CEM leukemia
OVCAR-3 ovarian = test system: OVCAR-3 ovarian
SR leukemia = test system: SR leukemia
NCI-H226 lung = test system: NCI-H226 lung

SMILES: C=C1CC[C@@H]2[C@]3(C)COC(c4cn(-c5ccccc5)nc4-c4ccccc4)O[C@@H]3CC[C@@]2(C)[C@@H]1C/C=C1/C(=O)OC[C@H]1O (stereo not given in full)
- GI50 (IGROV1 ovarian): 1770 nM
- TGI (IGROV1 ovarian): 3440 nM
- GI50 (UO-31 renal): 1350 nM
- TGI (UO-31 renal): 2690 nM
- GI50 (COLO 205 colon): 2010 nM
- TGI (COLO 205 colon): 3570 nM
- GI50 (EKVX NSCLC): 2070 nM
- TGI (EKVX NSCLC): 4650 nM
- GI50 (OVCAR-8 ovarian): 1810 nM
- TGI (OVCAR-8 ovarian): 5310 nM
- GI50 (NCI-H460 lung): 1660 nM
- TGI (NCI-H460 lung): 3350 nM
- GI50 (MDA-MB-231 breast): 1720 nM
- TGI (MDA-MB-231 breast): 3250 nM
- GI50 (MOLT-4 leukemia): 1970 nM
- TGI (MOLT-4 leukemia): > 100000 nM
- GI50 (BT-549 breast): 1640 nM
- TGI (BT-549 breast): 3160 nM
- GI50 (U251 CNS): 1840 nM
- TGI (U251 CNS): 3710 nM
- GI50 (SF-295 CNS): 1640 nM
- TGI (SF-295 CNS): 3050 nM
- GI50 (SNB-75 CNS): 1360 nM
- TGI (SNB-75 CNS): 3900 nM
- GI50 (TK-10 renal): 1780 nM
- TGI (TK-10 renal): 3390 nM
- GI50 (NCI-H23 lung): 1690 nM
- TGI (NCI-H23 lung): 3080 nM
- GI50 (PC-3 prostate): 1950 nM
- TGI (PC-3 prostate): 4700 nM
- GI50 (OVCAR-5 ovarian): 1860 nM
- TGI (OVCAR-5 ovarian): 4020 nM
- GI50 (HOP-92 NSCLC): 1530 nM
- TGI (HOP-92 NSCLC): 2990 nM
- GI50 (SK-MEL-5 melanoma): 1400 nM
- TGI (SK-MEL-5 melanoma): 2700 nM
- GI50 (SK-MEL-28 melanoma): 1770 nM
- TGI (SK-MEL-28 melanoma): 3380 nM
- GI50 (CAKI-1 renal): 1860 nM
- TGI (CAKI-1 renal): 4810 nM
- GI50 (HCT-116 colon): 1610 nM
- TGI (HCT-116 colon): 3550 nM
- GI50 (ACHN renal): 1640 nM
- TGI (ACHN renal): 3050 nM
- GI50 (SW-620 colon): 1730 nM
- TGI (SW-620 colon): 3680 nM
- GI50 (SK-OV-3 ovarian): 4750 nM
- TGI (SK-OV-3 ovarian): 18700 nM
- GI50 (MALME-3M melanoma): 1730 nM
- TGI (MALME-3M melanoma): 3180 nM
- GI50 (RXF 393 renal): 1400 nM
- TGI (RXF 393 renal): 2840 nM
- GI50 (SNB-19 CNS): 1850 nM
- TGI (SNB-19 CNS): 3780 nM
- GI50 (LOX IMVI melanoma): 1540 nM
- TGI (LOX IMVI melanoma): 3000 nM
- GI50 (UACC-62 melanoma): 1650 nM
- TGI (UACC-62 melanoma): 3200 nM
- GI50 (RPMI-8226 leukemia): 2020 nM
- TGI (RPMI-8226 leukemia): 8620 nM
- GI50 (SF-539 CNS): 1840 nM
- TGI (SF-539 CNS): 3260 nM
- GI50 (786-0 renal): 2030 nM
- TGI (786-0 renal): 4470 nM
- GI50 (M14 melanoma): 1810 nM
- TGI (M14 melanoma): 3620 nM
- GI50 (A498 renal): 2340 nM
- TGI (A498 renal): 6470 nM
- GI50 (NCI-H522 lung): 1900 nM
- TGI (NCI-H522 lung): 3860 nM
- GI50 (K-562 leukemia): 2970 nM
- TGI (K-562 leukemia): > 100000 nM
- GI50 (T-47D breast): 1420 nM
- TGI (T-47D breast): 3470 nM
- GI50 (SK-MEL-2 melanoma): 1740 nM
- TGI (SK-MEL-2 melanoma): 3540 nM
- GI50 (MDA-MB-468 breast): 1690 nM
- TGI (MDA-MB-468 breast): 3340 nM
- GI50 (HS 578T breast): 2310 nM
- TGI (HS 578T breast): 6540 nM
- GI50 (MDA-MB-435): 1860 nM
- TGI (MDA-MB-435): 4190 nM
- GI50 (HOP-62 NSCLC): 1870 nM
- TGI (HOP-62 NSCLC): 3840 nM
- GI50 (SN12C renal): 1870 nM
- TGI (SN12C renal): 3960 nM
- GI50 (A549 NSCLC): 2490 nM
- TGI (A549 NSCLC): 7110 nM
- GI50 (UACC-257 melanoma): 1900 nM
- TGI (UACC-257 melanoma): 3800 nM
- GI50 (MCF7 breast): 2000 nM
- TGI (MCF7 breast): 9090 nM
- GI50 (HCC-2998 colon): 1680 nM
- TGI (HCC-2998 colon): 3110 nM
- GI50 (HL-60(TB) leukemia): 2320 nM
- TGI (HL-60(TB) leukemia): 7460 nM
- GI50 (HT29 colon): 2370 nM
- TGI (HT29 colon): 6770 nM
- GI50 (SF-268 CNS): 3200 nM
- TGI (SF-268 CNS): 20500 nM
- GI50 (HCT-15 colon): 1720 nM
- TGI (HCT-15 colon): 3450 nM
- GI50 (CCRF-CEM leukemia): 590 nM
- TGI (CCRF-CEM leukemia): 3370 nM
- GI50 (OVCAR-3 ovarian): 1820 nM
- TGI (OVCAR-3 ovarian): 3350 nM
- GI50 (SR leukemia): 3790 nM
- TGI (SR leukemia): > 100000 nM
- GI50 (NCI-H226 lung): 1950 nM
- TGI (NCI-H226 lung): 4310 nM

Reference: PubChem BioAssay (NCI)
